Patent US20210330756A1, “Acetylation of Miro1” (University of South Carolina, priority 2020, published 2021)

How the values were obtained:
[1] = tested on: Miro1; experiment: Anti-Ac-Lys immunoprecipitation of Miro1 from DRG lysates; assay type: cell-based, rat
Method: Protein acetylome profiles from nonneuronal cells have reported acetylation of Miro1/2 and Milton 1/2 but not of Syntaphilin (Choudhary et al., 2009; Lundby et al., 2012; Wagner et al., 2012).
DRG neurons were lysed in 100 mM KCl, 5 mM MgCl2, 10 mM Hepes, pH 7.4, 1 mM DTT, and 0.5% NP-40 supplemented with lx protease inhibitor cocktail (Roche). The lysates were passed through a 25-gauge needle five times and cleared by centrifugation at 12,000 g for […]. Equal amounts of the supernatants were then incubated with primary antibodies overnight, and immunocomplexes were precipitated with Protein G-Dynabeads (Invitrogen) for an additional 2 h at 4° C. with rotation. A cocktail of rabbit and mouse anti-Ac-Lys antibodies (5 μg each; Cell Signaling; 9441 and 9681) was used directly for analyses of Myc-Miro1 transfected cultures by immunoprecipitation. For analysis of endogenous Miro1 acetylation, the anti-Lys antibody cocktail (5 μg of each) was directly cross-linked to 5 mg of M-270 epoxy beads (Dynabeads) using the Dynabeads antibody coupling kit according to the manufacturer's instructions (Life Technologies; 14311D). […]
For immunoblotting, protein lysates or immunoprecipitates were denatured by boiling in Laemmli sample buffer, fractionated by SDS-PAGE, and transferred to nitrocellulose membranes. […] Signals were detected using ECL Prime (GE Healthcare) after extensive washing.

[2] = tested on: sciatic nerve unmyelinated axons; experiment: EM count of mitochondria in unmyelinated sciatic nerve axons after nerve injection; assay type: in vivo, rat; conditions: 2 μl of 1.5 mM, EM 2 h after injection, vs vehicle
Method: To determine if TubA might also affect axonal mitochondria in vivo, we directly injected TubA into the sciatic nerve of adult rats at mid-thigh. […] As this could reflect stalling of mitochondria or increased numbers of anterogradely and/or retrogradely moving mitochondria, we performed in vivo imaging to visualize mitochondrial dynamics.
For in vivo inhibition of HDAC6, the sciatic nerve of anesthetized adult rats was injected twice at mid-thigh level with 2 μl of 1.5 mM TubA on the right and 2 μl of DMSO (vehicle control) on the left (isofluorane inhalation was used for anesthesia). Nerve injection sites were separated by 2 mm. […]
Vesicle trafficking was quantified using differential ImageJ Difference Tracker Plug-in (Andrews et al., 2010). 50-80-μm long unbranched axon segments at approximately the mid-region between growth cone and cell body were analyzed. […] The distance between the growth tip at end of the post-CALI sequence and the pre-CALI baseline was measured using LAS-X software. Movement of ≥0.5 μm toward the axon shaft was counted as retracted. Fluorescence emission of the Mito-KR post-CALI was analyzed using ImageJ. […] For axon shaft FRAP analyses, each 50-μm bleached ROI was divided into […], and the fluorescence intensity recovery was measured as described above. […] A minimum of 75 unmyelinated axons was analyzed for each nerve. […]

CN1CCc2c(c3ccccc3n2Cc2ccc(C(=O)NO)cc2)C1 [TubA, tubastatin]
pull-down efficiency of Miro1 with anti-Ac-Lys antibody cocktail ([1]; 10 μM TubA for 4 h, n=4): 14.1±2.2%
anti-Ac-Lys immunoprecipitated Miro1 band ([1]; treatment with TubA): modestly increasing
mitochondrial numbers in unmyelinated axons [2]: significantly increased mitochondrial numbers
